These are literature values, as cited in patent US6486186B2, “Thiazole compounds as cyclic AMP-specific phosphodiesterase inhibitors and method of using the same” (ICOS Corporation, priority 1999, dated 2002).

As usually defined, the IC50 is the midpoint of a concentration-inhibition curve.

For series [1] the following is noted: in vivo.
In the next series the test system is recombinant human PDE4. The note with it: literature value; read-out: reported IC50 with respect to inhibiting recombinant human PDE4.

Regarding `COc1ccc([C@@H]2CNC(=O)C2)cc1OC1CCCC1` (single isomer, unassigned) [(−)-enantiomer of rolipram], in series [1], the “emetic potential relative to the (+)-enantiomer (S-rolipram)” value is reported as “about ten-fold more emetic”.
Take `COc1ccc(C2CNC(=O)C2)cc1OC1CCCC1` (stereo not drawn) [Rolipram]: the IC50 in the series with recombinant human PDE4 was ~200 nM.
Turning to `COC(=O)N1CC(c2ccc(OC)c(OC3CCCC3)c2)C(C)(C(C)=O)C1` (stereo not drawn) [structural formula (I)], the IC50 in the series on recombinant human PDE4 was ~2 nM.
